# Reference: US20240252474A1, “METHODS AND COMPOSITIONS COMPRISING A CARDIO-TOLERATED HDAC INHIBITOR” (HUYABIO International, LLC, priority 2023, published 2024)
# Experiment: Phase 1b safety and tolerability of HBI-8000 combined with nivolumab (DLTs, TEAEs)
# Format: in vivo
# Procedure: The present example, was a Phase Ib/2 open-label dose finding study for HBI-8000 (also referred to in the art as “chidamide” or “tucidinostat” and also referred to herein as a compound of formula I) in combination with nivolumab in patients with advanced solid tumors, including melanoma, RCC (renal cell carcinoma), and NSCLC (non-small cell lung cancer). This study was conducted in accordance with Good Clinical Practice guidelines and the Declaration of Helsinki and with assurance/approval from the US Department of Health and Human Services; the protocol was approved by the institutional review boards or ethics committees of all participating sites. All patients provided written informed consent to participate before enrollment. […]
# HBI-8000 at three dose levels (20 mg, 30 mg, and 40 mg) given orally twice a week (BIW) were evaluated. Doses were taken approximate 30 minutes after a meal. The starting dose (20 mg) was selected based on pharmacokinetic profiles established for monotherapy in Japanese patients with T-cell lymphoma.
# The decision to escalate the dose was based on the conventional 3+3 design and observed incidences of dose-limiting toxicities (DLTs). Each treatment cycle was defined as 28 days. […] Subjects experiencing DLT within the first two weeks after having received 100% of assigned dose of HBI-8000 are also evaluable for DLT. Unacceptable toxicities were defined as grade 3 or higher non-hematologic and hematologic toxicities with clinical complications. Unacceptable toxicities observed over the first 28 days following HBI-8000 administration were considered as DLTs. […] HBI-8000 administration continued until disease progression or unacceptable toxicity was observed. The efficacy of the combination was further evaluated in an expanded cohort of selected patient populations at RP2D based on an objective response rate according to Response Evaluation Criteria in Solid Tumors (RECIST) version 1.1 criteria, progression-free survival, and duration of responses.
# Safety evaluations included physical examinations, vital signs, ECGs, ECOG performance status, and laboratory tests.
# Statistical analyses of safety, tolerability, and anti-tumor activity were primarily descriptive in nature. Toxicities were tabulated by type and grade. The safety population included all patients who received ≥1 dose of HBI-8000 and nivolumab. Continuous variables were summarized using descriptive statistics and categorical variables were summarized with number and percentage at each category. Pharmacokinetic parameters were derived using noncompartmental methods with Phoenix® WinNonlin® Version 6.4 (Certara, L. P., Princeton, NJ, USA).
# [1] = 20 mg HBI-8000 BIW + nivolumab, N = 3
# [2] = 30 mg HBI-8000 BIW + nivolumab, N = 7
# [3] = 40 mg HBI-8000 BIW + nivolumab, N = 7
structure (smiles),measurement,setting,value
"Nc1cc(F)ccc1NC(=O)c1ccc(CNC(=O)/C=C/c2cccnc2)cc1 [HBI-8000, N-(2-amino-4-fluorophenyl)-4-[[[(2E)-1-oxo-3-(3-pyridinyl)-2-propen-1-yl]amino]methyl]benzamide]","Alanine aminotransferase increased, All, G < 3",[1],1 (33) n (%)
same,"Alanine aminotransferase increased, Related Both, Any G",[1],1 (33) n (%)
same,"Any SAE, number of subjects",[1],1 n
same,"Any TEAE, number of subjects",[1],3 n
same,"Aspartate aminotransferase increased, All, G < 3",[1],1 (33) n (%)
same,"Aspartate aminotransferase increased, Related Both, Any G",[1],1 (33) n (%)
same,"Decreased appetite, All, G < 3",[1],1 (33) n (%)
same,"Dehydration, All, G < 3",[1],1 (33) n (%)
same,"Diarrhoea, All, G < 3",[1],2 (67) n (%)
same,"Diarrhoea, Related Both, Any G",[1],1 (33) n (%)
same,"Dizziness, All, G < 3",[1],1 (33) n (%)
same,"Dyspnoea, All, G < 3",[1],2 (67) n (%)
same,"Dyspnoea, Related Both, Any G",[1],1 (33) n (%)
same,"Fatigue, All, G < 3",[1],2 (67) n (%)
same,"Fatigue, All, G ≥ 3",[1],1 (33) n (%)
same,"Fatigue, Related Both, Any G",[1],1 (33) n (%)
same,"Headache, All, G < 3",[1],1 (33) n (%)
same,"Hypocalcaemia, All, G < 3",[1],1 (33) n (%)
same,"Hypocalcaemia, All, G ≥ 3",[1],1 (33) n (%)
same,"Hypokalaemia, All, G ≥ 3",[1],1 (33) n (%)
same,"Nausea, All, G < 3",[1],2 (67) n (%)
same,"Nausea, All, G ≥ 3",[1],1 (33) n (%)
same,"Oedema peripheral, All, G < 3",[1],1 (33) n (%)
same,"SAE related to HBI-8000 & Nivolumab, number of subjects",[1],0 n
same,"SAE related to HBI-8000 alone, number of subjects",[1],0 n
same,"TEAE related to HBI-8000 & Nivolumab, number of subjects",[1],3 n
same,"TEAE related to HBI-8000 alone, number of subjects",[1],0 n
same,"TEAE resulting in discontinuation of HBI-8000 alone, number of subjects",[1],2 n
same,"TEAE resulting in discontinuation of both HBI-8000 and Nivo, number of subjects",[1],0 n
same,"Vomiting, All, G < 3",[1],1 (33) n (%)
same,"Weight decreased, All, G < 3",[1],1 (33) n (%)
same,"Alanine aminotransferase increased, All, G < 3",[2],2 (29) n (%)
same,"Alanine aminotransferase increased, Related Both, Any G",[2],2 (29) n (%)
same,"Anaemia, All, G < 3",[2],4 (57) n (%)
same,"Anaemia, All, G ≥ 3",[2],1 (14) n (%)
same,"Anaemia, Related Both, Any G",[2],3 (43) n (%)
same,"Any SAE, number of subjects",[2],6 n
same,"Any TEAE, number of subjects",[2],7 n
same,"Aspartate aminotransferase increased, All, G < 3",[2],2 (29) n (%)
same,"Aspartate aminotransferase increased, Related Both, Any G",[2],2 (29) n (%)
same,"Atrial fibrillation, All, G < 3",[2],1 (14) n (%)
same,"Back pain, All, G < 3",[2],4 (57) n (%)
same,"Back pain, Related Both, Any G",[2],1 (14) n (%)
same,"Contusion, All, G < 3",[2],1 (14) n (%)
same,"Contusion, Related Both, Any G",[2],1 (14) n (%)
same,"Decreased appetite, All, G < 3",[2],4 (57) n (%)
same,"Decreased appetite, All, G ≥ 3",[2],1 (14) n (%)
same,"Decreased appetite, Related Both, Any G",[2],3 (43) n (%)
same,"Decreased appetite, Related HBI, Any G",[2],1 (14) n (%)
same,"Dehydration, All, G < 3",[2],2 (29) n (%)
same,"Dehydration, All, G ≥ 3",[2],1 (14) n (%)
same,"Dehydration, Related Both, Any G",[2],1 (14) n (%)
same,"Diarrhoea, All, G < 3",[2],3 (43) n (%)
same,"Diarrhoea, Related Both, Any G",[2],3 (43) n (%)
same,"Dizziness, All, G < 3",[2],2 (29) n (%)
same,"Dizziness, Related Both, Any G",[2],1 (14) n (%)
same,"Dizziness, Related HBI, Any G",[2],1 (14) n (%)
same,"Dyspnoea, All, G < 3",[2],4 (57) n (%)
same,"Dyspnoea, Related Both, Any G",[2],1 (14) n (%)
same,"Fall, All, G < 3",[2],2 (29) n (%)
same,"Fall, Related Both, Any G",[2],1 (14) n (%)
same,"Fatigue, All, G < 3",[2],5 (71) n (%)
same,"Fatigue, All, G ≥ 3",[2],1 (14) n (%)
same,"Fatigue, Related Both, Any G",[2],4 (57) n (%)
same,"Headache, All, G < 3",[2],2 (29) n (%)
same,"Headache, Related Both, Any G",[2],1 (14) n (%)
same,"Hypocalcaemia, All, G < 3",[2],3 (43) n (%)
same,"Hypocalcaemia, Related Both, Any G",[2],2 (29) n (%)
same,"Hypokalaemia, All, G < 3",[2],2 (29) n (%)
same,"Hypokalaemia, All, G ≥ 3",[2],1 (14) n (%)
same,"Hypokalaemia, Related Both, Any G",[2],1 (14) n (%)
same,"Hypophosphataemia, All, G < 3",[2],3 (43) n (%)
same,"Hypophosphataemia, All, G ≥ 3",[2],3 (43) n (%)
same,"Hypophosphataemia, Related Both, Any G",[2],2 (29) n (%)
same,"Hypophosphataemia, Related HBI, Any G",[2],1 (14) n (%)
same,"Hypotension, All, G < 3",[2],1 (14) n (%)
same,"Hypotension, All, G ≥ 3",[2],2 (29) n (%)
same,"Hypotension, Related Both, Any G",[2],1 (14) n (%)
same,"Hypoxia, All, G < 3",[2],1 (14) n (%)
same,"Hypoxia, All, G ≥ 3",[2],3 (43) n (%)
same,"Hypoxia, Related Both, Any G",[2],1 (14) n (%)
same,"Lipase increased, All, G < 3",[2],3 (43) n (%)
same,"Lipase increased, All, G ≥ 3",[2],4 (57) n (%)
same,"Lipase increased, Related Both, Any G",[2],2 (29) n (%)
same,"Lymphocyte count decreased, All, G < 3",[2],3 (43) n (%)
same,"Lymphocyte count decreased, All, G ≥ 3",[2],3 (43) n (%)
same,"Lymphocyte count decreased, Related Both, Any G",[2],2 (29) n (%)
same,"Nausea, All, G < 3",[2],3 (43) n (%)
same,"Nausea, Related HBI, Any G",[2],1 (14) n (%)
same,"Neutrophil count decreased, All, G < 3",[2],2 (29) n (%)
same,"Neutrophil count decreased, All, G ≥ 3",[2],1 (14) n (%)
same,"Neutrophil count decreased, Related Both, Any G",[2],1 (14) n (%)
same,"Neutrophil count decreased, Related HBI, Any G",[2],1 (14) n (%)
same,"Non-cardiac chest pain, All, G < 3",[2],2 (29) n (%)
same,"Oedema peripheral, All, G < 3",[2],4 (57) n (%)
same,"Oedema peripheral, All, G ≥ 3",[2],1 (14) n (%)
same,"Oedema peripheral, Related Both, Any G",[2],1 (14) n (%)
same,"Oedema peripheral, Related HBI, Any G",[2],1 (14) n (%)
same,"Platelet count decreased, All, G < 3",[2],4 (57) n (%)
same,"Platelet count decreased, Related Both, Any G",[2],3 (43) n (%)
same,"Platelet count decreased, Related HBI, Any G",[2],1 (14) n (%)
same,"Pleural effusion, All, G < 3",[2],3 (43) n (%)
same,"Pleural effusion, Related Both, Any G",[2],1 (14) n (%)
same,"SAE related to HBI-8000 & Nivolumab, number of subjects",[2],0 n
same,"SAE related to HBI-8000 alone, number of subjects",[2],0 n
same,"TEAE related to HBI-8000 & Nivolumab, number of subjects",[2],5 n
same,"TEAE related to HBI-8000 alone, number of subjects",[2],4 n
same,"TEAE resulting in discontinuation of HBI-8000 alone, number of subjects",[2],1 n
same,"TEAE resulting in discontinuation of both HBI-8000 and Nivo, number of subjects",[2],1 n
same,"Vomiting, All, G < 3",[2],1 (14) n (%)
same,"Vomiting, Related Both, Any G",[2],1 (14) n (%)
same,"Weight decreased, All, G < 3",[2],5 (71) n (%)
same,"Weight decreased, Related Both, Any G",[2],3 (43) n (%)
same,"White blood cell count decreased, All, G < 3",[2],2 (29) n (%)
same,"White blood cell count decreased, All, G ≥ 3",[2],1 (14) n (%)
same,"White blood cell count decreased, Related Both, Any G",[2],2 (29) n (%)
same,"White blood cell count decreased, Related HBI, Any G",[2],2 (29) n (%)
same,"Alanine aminotransferase increased, All, G < 3",[3],1 (14) n (%)
same,"Alanine aminotransferase increased, Related Both, Any G",[3],1 (14) n (%)
same,"Anaemia, All, G < 3",[3],4 (57) n (%)
same,"Anaemia, All, G ≥ 3",[3],1 (14) n (%)
same,"Anaemia, Related Both, Any G",[3],1 (14) n (%)
same,"Anaemia, Related HBI, Any G",[3],2 (29) n (%)
